Data as given in PubChem BioAssay (NCI).
Several values for one entry are separate records, joined by “and”; a condition that tells them apart may be missing. Equal entries are not always repeated.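 The compound was tested at five concentrations on cells cultured in 96-well plates, with a 48-hour exposure period. At the GI50, growth is halved. TGI: concentration producing complete growth inhibition.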

Key:
Assay in all cases: NCI anticancer screen, dose series, 48 h
[1] = test system: OVCAR-5 ovarian
[2] = test system: SK-MEL-5 melanoma
[3] = test system: SF-268 CNS
[4] = test system: SK-MEL-28 melanoma
[5] = test system: OVCAR-4 ovarian
[6] = test system: HOP-62 NSCLC
[7] = test system: SF-295 CNS
[8] = test system: LOX IMVI melanoma
[9] = test system: HOP-92 NSCLC
[10] = test system: NCI-H460 lung

Row | Structure (SMILES) | GI50 [1] [µM] | TGI [1] | GI50 [2] [µM] | TGI [2] [µM] | GI50 [3] [µM] | TGI [3] | GI50 [4] [µM] | TGI [4] [µM] | GI50 [5] [µM] | TGI [5] | GI50 [6] [µM] | TGI [6] [µM] | GI50 [7] [µM] | TGI [7] | GI50 [8] [µM] | TGI [8] | GI50 [9] [µM] | TGI [9] | GI50 [10] [µM] | TGI [10] [µM]
1 | NC(=NCCCCCCN=C(N)/N=C(\N)Nc1ccc(Cl)cc1)/N=C(\N)Nc1ccc(Cl)cc1 | 1.83 | 6.32 µM | 0.908 | 1.73 | 1.48 | 4.46 µM | 1.7 | 6 | 1.72 | 6.46 µM | 1.33 | 4.06 | 0.966 | 2.35 µM | 0.958 | 2.19 µM | 1.41 | 3.8 µM | 0.929 | 1.92
2 | O=C1C(Cl)=C(Nc2ccc(S(=O)(=O)c3ccc(NC4=C(Cl)C(=O)c5ccccc5C4=O)cc3)cc2)C(=O)c2ccccc21 | 1.92 | 3.81 µM | 1.71 | 3.49 |  |  | 1.8 | 3.28 |  |  | 2.14 | 6.52 | 3.27 | 11.8 µM | 1.49 | 3.1 µM | 1.96 | 3.44 µM | 2.36 | 6.53
3 | CC(C)=C[C@@H]1C[C@H](C)[C@H]2CC[C@H](C)c3c(O)c(OC4OC(C)C(O)C(O)C4O)c(C)c1c32 (stereo partly drawn) | 10.5 | 23.2 µM | 12 | 24.7 | 16 | 31.3 µM | 18.1 | 32.1 | 12.1 | 24.7 µM | 19.2 | 34.7 | 15.9 | 30.9 µM | 11.8 | 24.4 µM | 14.8 | 28.5 µM | 7.83 | 21.2
4 | Cc1cc(N(CCC#N)CCC#N)ccc1/C=C(\NC(=O)/C=C/c1ccccc1)C(=O)Nc1ccccc1Cl |  | > 100 µM |  | > 100 |  | > 100 µM |  | > 100 |  | > 100 µM |  |  |  | > 100 µM |  | > 100 µM |  | 94.5 µM |  | > 100
5 | Cc1cc(C)c2nc3c(c(C(O)C4CCCCN4)c2c1)CC/C3=C\c1ccc(Cl)cc1 (stereo not drawn) |  | > 100 µM |  | 92.2 |  | > 100 µM |  | > 100 |  | > 100 µM |  | > 100 |  | > 100 µM |  |  |  | > 100 µM |  | > 100
6 | COC(=O)C1=NC(=S)NC(c2ccccc2)C1c1nc2ccccc2o1 (stereo not drawn) |  | > 50 µM |  |  |  | > 50 µM |  |  |  | > 50 µM |  | > 50 |  | > 50 µM |  | > 50 µM |  | > 50 µM |  | > 50
7 | CCCN1C(=O)/C(=C/c2ccc(SC(F)(F)F)cc2)SC1=Nc1ccc(OC)cc1 | 7.84 | 24 µM | 17.3 | > 50 | 11.3 | 43.9 µM | 28.4 | > 50 |  |  | 16.5 | > 50 | 9.32 | 38.1 µM | 4.36 | > 50 µM | 6.6 | 19.8 µM | 12.1 | > 50
8 | CN(C)CCCN1c2ccccc2Sc2ccc(C(F)(F)F)cc21 | 1.63 | 3.25 µM and 31.6 µM | 1.57 |  | 1.75 | 3.94 µM and 31.8 µM and 29.2 µM | 1.68 |  | 1.97 | 5.53 µM and 28 µM |  |  | 1.65 | 3.23 µM and 30.4 µM and 29.1 µM | 1.57 | 2.98 µM and 28.9 µM and 29.7 µM | 1.04 | 2.99 µM and 26.3 µM | 1.6 | 
9 | COC(=O)C(=O)C(C(=O)C(=O)Nc1ccc([N+](=O)[O-])cc1)c1nc2ccccc2[nH]c1=O (stereo not drawn) |  |  |  | > 100 |  | > 100 µM |  | > 100 |  | > 100 µM |  | > 100 |  |  |  | > 100 µM |  | > 100 µM |  | > 100
10 | COc1ccc(/C=C/C(=N\NC(=O)c2ccccc2)c2sc(Nc3ccc([N+](=O)[O-])cc3)nc2C)cc1OC |  | > 100 µM |  |  |  | 33.5 µM |  | 47.2 |  | 36.9 µM |  | 49.9 |  | 26.5 µM |  | 15.9 µM |  | 6.41 µM |  | 41.2
11 | O=[N+]([O-])c1ccccc1N=Nc1c(O)[nH]c2c(Cl)cccc12 |  | > 100 µM |  | > 46.5 |  | 59.8 µM |  | > 72.4 |  | 24.8 µM |  | 40.9 |  | 31.6 µM |  | 44.1 µM |  |  |  | 38.4
12 | Cc1cc(NCCCCCCCNc2cc(C)nc3cc(N)ccc23)c2ccc(N)cc2n1 |  | > 100 µM |  | > 100 |  | > 100 µM |  | > 100 |  | > 100 µM |  | > 100 |  | > 100 µM |  | 45.4 µM |  |  |  | > 100
13 | COC(=O)Cc1cc(=O)n2c3ccccc3n(C)c2c1C#N |  | > 100 µM |  | > 100 |  | > 100 µM |  | > 100 |  | > 100 µM |  | > 100 |  | > 100 µM |  | > 100 µM |  |  |  | > 100
14 | C[N+](C)(C)CC1CCC(C[N+](C)(C)C)C1=NO (stereo not drawn) |  |  |  | > 100 |  | > 100 µM |  | > 100 |  | > 100 µM |  | > 100 |  | > 100 µM |  | > 100 µM |  |  |  | 
15 | N=C(N)c1ccc2oc3ccc(C(=N)N)cc3c(=O)c2c1 |  | > 100 µM |  | > 100 |  | > 100 µM |  | > 100 |  | > 100 µM |  |  |  | > 100 µM |  |  |  | > 100 µM |  | > 100
16 | CCc1ccc2c(c1)C(=O)c1c-2n(CCCN)c(=O)c2cc(OC)c(OC)cc12 | 1.82 | 3.24 µM | 1.44 | 2.8 |  |  | 1.77 | 3.19 | 1.74 | 3.2 µM | 1.84 | 3.29 | 1.59 | 3.08 µM | 1.36 | 2.73 µM | 1.33 | 2.71 µM | 1.85 | 3.86
17 | C=CCC(N[C@@H](CO)c1ccccc1)c1ccc2ccccc2n1 (stereo partly drawn) | > 100 | > 100 µM |  |  |  |  | > 100 | > 100 | > 100 | > 100 µM | > 100 | > 100 | > 100 | > 100 µM | > 100 | > 100 µM |  |  |  | 
18 | FC(F)(F)c1ccccc1C1SCc2nc3ccccc3n21 (stereo not drawn) |  | > 100 µM |  |  |  | > 100 µM |  | > 100 |  |  |  |  |  | > 100 µM |  |  |  | 53.3 µM |  | 
19 | CC(C)(O)C1COC2=C1C(=O)c1ccccc1C2=O (stereo not drawn) |  | 54 µM |  | 57.4 |  | 77.1 µM |  | 46 |  | > 100 µM |  |  |  | > 100 µM |  | 41.9 µM |  | > 100 µM |  | > 100
